What all share (format): physicochemical
Data set [1] is described as follows: physical and chemical stability under stress conditions.
A further data set is described as follows: solubility.
A short description of data set [2]: moisture sorption/desorption measurements. To be noted: based on moisture sorption/desorption measurements.
A short description of data set [3]: intrinsic dissolution rate. The conditions noted are these: pH 2.0 buffer.

Data on one compound can be found in patent US20140094486A1, “SOLID STATE FORMS OF HIV INHIBITOR” (Gilead Sciences, Inc., priority 2011, published 2014).

As for `Cc1nc2ccccc2c(-c2ccc3c4c(ccnc24)CCO3)c1[C@H](OC(C)(C)C)C(=O)O` (atropisomer, axis not shown) [Type A], in data set [1], the “physical and chemical stability” value was “exhibits physical and chemical stability”. The solubility in “solubility” (pH 2, simulated gastric fluid) was more than 24 mg/mL; in “solubility” (pH 4.5, aqueous buffer), more than 24 mg/mL; in the data set “solubility” (pH 6.8, aqueous buffer) it was more than 24 mg/mL. The hygroscopicity result in data set [2] was “non-hygroscopic”. This compound came in with an intrinsic dissolution rate in data set [3] of 4528 μg/[cm^2×min].

By solubility is commonly meant the concentration that dissolves in the medium under given conditions. High values mean much dissolved substance, low ones little dissolved substance.
